Source: paper PMC9321930, “Modelling the Human Blood–Brain Barrier in Huntington Disease” (International Journal of Molecular Sciences, 2022)
Like-named read-outs stand apart in the source and are kept apart here.

Key:
[1] = Table S4; cited from earlier work
[2] = system: iBMEC_33Q
[3] = system: iBMEC_71Q
[4] = system: iBMEC_109Q
[5] = system: iBMEC_71Q; assay: Transport assay (permeability) across iBMEC_71Q transwell BBB model; settings: for Permeability iBMEC_71Q: Table 1, compound alone, mean ± SE, n > 6, compounds marked ^a calculated from Ptotal
[6] = system: iBMEC_33Q; assay: Transport assay (permeability) across iBMEC_33Q transwell BBB model; settings: for Permeability iBMEC_33Q: Table 1, compound alone, mean ± SE, n > 6, compounds marked ^a calculated from Ptotal
[7] = system: iBMEC_109Q; assay: Transport assay (permeability) across iBMEC_109Q transwell BBB model; settings: for Permeability iBMEC_109Q: Table 1, compound alone, mean ± SE, n > 6, compounds marked ^a calculated from Ptotal
[8] = Transport assay (permeability) across iBMEC_71Q transwell BBB model; settings: female, human
[9] = Transport assay (permeability) across iBMEC_33Q transwell BBB model; settings: female, human
[10] = Transport assay (permeability) across iBMEC_109Q transwell BBB model; settings: female, human
[11] = system: all iBMECs; assay: Inhibition of substrate transport by transporter inhibitors, all iBMECs; assay type: cell-based, human
Method: (§1) The measurement of TEER, transport studies, and the derivation of permeability coefficients were carried out as reported. In each filter, a paracellular marker (radiolabelled sucrose or LY) was added as internal control of the tightness of the monolayer. The amounts of radiotracer and fluorescent tracers were determined by liquid scintillation (Top Count-NXT, Microplate Scintillation and Luminescence counter from Perkin Elmer, Milan, Italy) and fluorescence spectrophotometry (SAFIRE TECAN, Microplate Fluorescence reader, Männedorf, Switzerland), respectively. In efflux and influx transport assays, before the addition of the compounds, filters were pre-incubated for 15 min at 37 °C with or without inhibitors and/or substrates: 2 µM elacridar (PGP inhibition), 2 µM of KO143 (BCRP inhibition), 10 µM JPH203 (LAT-1 inhibition), and 200 µM of phloretin (GLUT inhibition). Each test compound was assayed in triplicates. Transferrin from Human Serum, Alexa Fluor™ 594 Conjugate (T13343 Invitrogen™ from Thermo Fisher, Monza, Italy) was incubated (2.5 µM) in HBSS-20 mM Hepes pH 7.4 containing 1% BSA for 2 h, at 37 °C, and 5% CO2 and on ice at 4 °C. At the end of the incubation, aliquots from both compartments were collected and the fluorescent tracer was quantified.

[12] = system: rat cerebral microcirculation; settings: cited from earlier work
[13] = system: iBMECs 71Q; assay: Receptor-mediated transcytosis of fluorescent transferrin, iBMEC 71Q; assay type: in vitro ADME, human; settings: for Transferrin transported: 71Q, basal compartment after 2 h, 2.5 µM, mean ± sd
Method: as §1

[14] = system: iBMECs 109Q; assay: Receptor-mediated transcytosis of fluorescent transferrin, iBMEC 109Q; assay type: in vitro ADME, human; settings: for Transferrin transported: 109Q, basal compartment after 2 h, 2.5 µM, mean ± sd
Method: as §1

[15] = system: iBMECs 33Q; assay: Receptor-mediated transcytosis of fluorescent transferrin, iBMEC 33Q; assay type: in vitro ADME, human; settings: basal compartment after 2 h, 2.5 µM, mean ± sd
Method: as §1

[16] = system: GLUT; assay: in vitro; settings: female, human
[17] = system: iBMEC_71Q; assay: TNFα treatment, inflammatory gene expression (qRT-PCR), iBMEC_71Q; assay type: cell-based, human; settings: 50 ng/mL TNFα, 48 h, versus untreated cells
Method: (§2) To evaluate the self-renewal capacity and the pluripotency as well as the trilineage differentiation potential, mRNA was subjected to the hPSC scorecard assay (Cat. A15872, Thermo Fisher, Monza, Italy) after RNA extraction from iPSC colonies with RNeasy mini kit (Cat. 74106, Qiagen, Hilden, Germany). cDNA was obtained with High-capacity cDNA reverse transcription kit (Cat. 4374966, Thermo Fisher, Monza, Italy). The expression of inflammatory genes after TNFα treatment was evaluated using the TaqMan™ Array Human Inflammation Panel (Cat. 4378722, Applied Biosystem, Foster City, CA, USA). qRT-PCR was performed in QuantStudio 12 K Flex (Thermo Fisher, Monza, Italy). The analysis of the hPSC score was conducted with the hPSC Score Card Panel software.
(§3) To mimic a neuroinflammatory condition, cells in transwells were treated with 50 ng/mL of TNFα for 48 h before RNA extraction.

[18] = system: iBMEC_33Q; assay: TNFα treatment, inflammatory gene expression (qRT-PCR), iBMEC_33Q; assay type: cell-based, human; settings: 50 ng/mL TNFα, 48 h, versus untreated cells
Method: as §2, §3

[19] = system: iBMEC_109Q; assay: TNFα treatment, inflammatory gene expression (qRT-PCR), iBMEC_109Q; assay type: cell-based, human; settings: 50 ng/mL TNFα, 48 h, versus untreated cells
Method: as §2, §3

## O=C(O)c1cc(=O)c2ccccc2[nH]1 [KYNA, kynurenic acid]
[1]
  Human Kp,uu,CSF: 0.024

## CN(C)CCCC1(c2ccc(F)cc2)OCc2cc(C#N)ccc21 (stereo not drawn) [citalopram]
[1]
  Human Kp,uu,CSF: 1.77

## N=C(N)NCCC[C@H](N)C(=O)O [arginine]
[1]
  Human Kp,uu,CSF: 0.28

## CC(O)C(=O)O (stereo not drawn) [lactate]
[2]
  Permeability iBMEC_33Q: 53.8 ± 6.7 ×10^−6 cm/s
[3]
  Permeability iBMEC_71Q: 53.2 ± 3.6 ×10^−6 cm/s
[4]
  Permeability iBMEC_109Q: 52.6 ± 5.7 ×10^−6 cm/s

## N[C@@H](CCC(=O)O)C(=O)O [glutamate]
[5]; 71Q, no inhibitor
  Efflux Ratio: 2.0
[5]; 71Q, no inhibitor, mean ± SD
  Permeability A-B: 3.3 ± 0.1 ×10^−6 cm/s
  Permeability B-A: 6.8 ± 0.6 ×10^−6 cm/s
[5]
  Permeability iBMEC_71Q: 3.3 ± 0.1 ×10^−6 cm/s
[6]; 33Q, no inhibitor
  Efflux Ratio: 1.8
[6]; 33Q, no inhibitor, mean ± SD
  Permeability A-B: 4.1 ± 0.2 ×10^−6 cm/s
  Permeability B-A: 7.5 ± 0.5 ×10^−6 cm/s
[6]
  Permeability iBMEC_33Q: 4.1 ± 0.2 ×10^−6 cm/s
[7]; 109Q, no inhibitor
  Efflux Ratio: 1.3
[7]; 109Q, no inhibitor, mean ± SD
  Permeability A-B: 7.2 ± 0.7 ×10^−6 cm/s
  Permeability B-A: 9.0 ± 0.5 ×10^−6 cm/s
[7]
  Permeability iBMEC_109Q: 7.2 ± 0.7 ×10^−6 cm/s

## N[C@@H](Cc1ccccc1)C(=O)O [phenylalanine]
[8]
  Papp: 21.4 ± 1.4 ×10⁻⁶ cm/s
[1]
  Human Kp,uu,CSF: 0.28
[9]
  Papp: 25.8 ± 1.5 ×10⁻⁶ cm/s
[10]
  Papp: 30.4 ± 3 ×10⁻⁶ cm/s

## O=C1OC2(c3ccc(O)cc3Oc3cc(O)ccc32)c2ccccc21 [fluorescein]
[8]
  Papp: 0.24 ± 0.02 ×10⁻⁶ cm/s
[9]
  Papp: 0.11 ± 0.01 ×10⁻⁶ cm/s
[10]
  Papp: 0.8 ± 0.01 ×10⁻⁶ cm/s

## Nc1cc(COc2c(Cl)cc(C[C@H](N)C(=O)O)cc2Cl)c2oc(-c3ccccc3)nc2c1 [JPH203]
[11]; 10 µM JPH203, all models
  Reduction of leucine transport: about 80%

## CC(C)C[C@H](N)C(=O)O [leucine]
[1]
  Human Kp,uu,CSF: 0.12

## N[C@@H](Cc1ccc(O)c(O)c1)C(=O)O [L-DOPA]
[1]
  Human Kp,uu,CSF: 0.49

## lucifer yellow
[2]
  Efflux Ratio: 0.9
  LY permeability, time course: ≥ 0.5 ×10⁻⁶ cm/s
  Permeability A-B: 0.23 ± 0.02 ×10^−6 cm/s
  Permeability B-A: 0.21 ± 0.04 ×10^−6 cm/s
  Permeability iBMEC_33Q, paracellular markers: 2.3 ± 0.2 x10^-7 cm/s
[3]
  Efflux Ratio: 0.9
  LY permeability, time course: ≥ 0.5 ×10⁻⁶ cm/s
  Permeability A-B: 0.37 ± 0.03 ×10^−6 cm/s
  Permeability B-A: 0.34 ± 0.06 ×10^−6 cm/s
  Permeability iBMEC_71Q, paracellular markers: 3.7 ± 0.3 x10^-7 cm/s
[4]
  Efflux Ratio: 1.0
  LY permeability, time course: exceeded 5 × 10^−7 cm/s
  Permeability A-B: 0.70 ± 0.03 ×10^−6 cm/s
  Permeability B-A: 0.70 ± 0.1 ×10^−6 cm/s
  Permeability iBMEC_109Q, paracellular markers: 7.0 ± 0.3 x10^-7 cm/s
[12]
  Permeability P in vivo: 1 − 2 × 10^−7 cm/s

## CC(NC(C)(C)C)C(=O)c1cccc(Cl)c1 (stereo not drawn) [bupropion]
[1]
  Human Kp,uu,CSF: 1.11

## Transferrin: Transferrin from Human Serum, Alexa Fluor 594 Conjugate
[13]; 4°C
  Transferrin transported: 3.7 ± 0.3 ng
[13]; 37°C
  Transferrin transported: 7.3 ± 0.4 ng
[13]; iBMEC_71Q versus healthy model
  Higher level of basal accumulation of transferrin: ~2 fold
[14]; 4°C
  Transferrin transported: 4.0 ± 1.0 ng
[14]; 37°C
  Transferrin transported: 49.0 ± 13.0 ng
[14]; iBMEC_109Q versus healthy model
  Higher level of basal accumulation of transferrin: about 5 fold
[15]; 4°C
  Transferrin transported: 2.8 ± 0.4 ng
[15]; 37°C
  Transferrin transported: 4.1 ± 0.7 ng

## O=C(CCc1ccc(O)cc1)c1c(O)cc(O)cc1O [phloretin]
[11]; Homo sapiens, 200 µM phloretin, both directions (apical to basal and basal to apical), all iBMECs, read-out: Inhibition of glucose transport
  inhibition at 200 µM: 50 to 60%

## O=C1NC(=O)C(c2ccccc2)(c2ccccc2)N1 [phenytoin]
[8]
  Papp: 20.9 ± 1 ×10⁻⁶ cm/s
[1]
  Human Kp,uu,CSF: 0.19
[9]
  Papp: 18.6 ± 0.2 ×10⁻⁶ cm/s
[10]
  Papp: 27.7 ± 1.5 ×10⁻⁶ cm/s

## CN(Cc1cnc2nc(N)nc(N)c2n1)c1ccc(C(=O)N[C@@H](CCC(=O)O)C(=O)O)cc1 [methotrexate]
[1]
  Human Kp,uu,CSF: 0.02

## OC[C@H]1OC(O)[C@H](O)[C@@H](O)[C@@H]1O (stereo partly drawn) [glucose]
[1]
  Human Kp,uu,CSF: 0.65
[16]
  Papp A→B: 6.3 ×10⁻⁶ cm/s

## Cn1c(=O)c2c(ncn2C)n(C)c1=O [caffeine]
[1]
  Human Kp,uu,CSF: 1.00

## NC(=O)N1c2ccccc2C=Cc2ccccc21 [carbamazepine]
[1]
  Human Kp,uu,CSF: 0.24

## TNFα
[17]; 71Q
  Upregulation of ICAM-1 expression after TNFα treatment: about 2 fold
[17]; iBMEC 71Q
  Upregulation of VCAM1 expression after TNFα treatment: more than 40 fold
[18]; 33Q
  Upregulation of ICAM-1 expression after TNFα treatment: 9 fold
[18]; iBMEC 33Q
  Upregulation of VCAM1 expression after TNFα treatment: more than 40 fold
[19]; 109Q
  Upregulation of ICAM-1 expression after TNFα treatment: about 2 fold
[19]; iBMEC_109Q
  Upregulation of VCAM1 expression after TNFα treatment: none

## [D-Ala2]deltorphin-II
[5]
  Permeability iBMEC_71Q: 0.92 ± 0.01 ×10^−6 cm/s
[6]
  Permeability iBMEC_33Q: 0.77 ± 0.08 ×10^−6 cm/s
[7]
  Permeability iBMEC_109Q: 1.01 ± 0.02 ×10^−6 cm/s
